From patent US5506252A, “Substituted N-heteroaryl and N-aryl-1,2-diaminocyclobutene-3,4-diones” (American Home Products Corporation, priority 1994, dated 1996) come the findings set out here.

Molecules are shown by their SMILES.

For one test, the system named is Isolated Rat Bladder Strips. As to the kind of experiment: Inhibition of contractions in isolated rat bladder strips (smooth muscle relaxing activity, KCl-enhanced contractions). The test is classed as cell-based, Sprague-Dawley rats. To be noted: 0.5 h, 15 mM KCl added, 30 minute challenge, read-out: IC50 (concentration required to elicit 50% inhibition of pre-drug contractile activity). From the text: The smooth muscle relaxing activity of the compounds of this invention was established in accordance with standard pharmaceutically accepted test procedures in representative compounds as follows:
Sprague-Dawley rats (150-200 g) are rendered unconscious by CO2 asphyxiation and then euthanized by cervical dislocation. The bladder is removed into warm (37 deg. C.) physiological salt solution (PSS) of the following composition (mM): NaCl, 118.4; KCl, 4.7; CaCl2, 2.5; […]; NaHCO3, 24.9; KH2 PO4, 1.2; glucose, 11.1; EDTA, 0.023; gassed with […]; pH 7.4. The bladder is opened and then cut into strips 1-2 mm in width and 7-10 mm in length. The strips are subsequently suspended in a 10 mL tissue bath under an initial resting tension of 1.5 g. The strips are held in place by two surgical clips one of which is attached to a fixed hook while the other is attached to an isometric force transducer. […] The carbachol is then washed out and the tissue allowed to relax to its resting level of activity. Following one further 30 minute period of recovery, an additional 15 mM KCl are introduced into the tissue bath. This increase in KCl concentration results in a large increase in the amplitude of spontaneous contractions (and initiation of contractions in previously quiescent strips) superimposed upon a small increase in basal tone. Following stabilization of this enhanced level of contractile activity, incremental increases in the concentration of test compound or vehicle are introduced into the tissue bath. Contractile activity is measured for each compound or vehicle concentration during the last minute of a 30 minute challenge.
The isometric force developed by the bladder strips is measured using a […] to elicit 50% inhibition of pre-drug contractile activity (IC50 concentration) is calculated from this concentration-response curve.
Take `CC(C)(C)Nc1c(Nc2cccc3cnccc23)c(=O)c1=O` [Example 8, 3-Tert-butylamino-4-(isoquinolin-5-ylamino)-cyclobut-3-ene-1,2-dione]: the IC50 stood at 1840 nM.

Turning to `CC(C)(C)Nc1c(Nc2cccnc2)c(=O)c1=O` [Example 7, 3-Tert-butylamino-4-(pyridin-3-ylamino)-cyclobut-3-ene-1,2-dione], the IC50 was determined as 2800 nM.

As to `COc1cc(C#N)ccc1Nc1c(N[C@H](C)C(C)(C)C)c(=O)c1=O` [Example 25, (+)-(R)-4-[3,4-Dioxo-2-(1,2,2-trimethyl-propylamino)-cyclobut-1-enylamino]-3-methoxy-benzonitrile], the IC50 was determined as 290 nM.

Regarding `CCc1cc(C#N)ccc1Nc1c(N[C@H](C)C(C)(C)C)c(=O)c1=O` [Example 24, (+)-(R )-4-[3,4-Dioxo-2-(1,2,2-trimethyl-propylamino)-cyclobut-1-enylamino]-3-ethyl-benzonitrile], the IC50 came to 21 nM.

For `CC(C)(C)Nc1c(Nc2ccc3cn[nH]c3c2)c(=O)c1=O` [Example 19, 3-Tert-butylamino-4-(1H-indazol-6-ylamino)-cyclobut-3-ene-1,2-dione], the IC50 was found to be 6340 nM.

Consider `CC(Nc1c(Nc2ccc(C#N)cc2)c(=O)c1=O)C(C)(C)C` (stereo not shown) [Example 21, 4-[3,4-Dioxo-2-(1,2,2-trimethyl-propylamino)-cyclobut-1-enylamino]-benzonitrile], for which the IC50 turned out to be 520 nM.

On to `CC(Nc1c(Nc2cccc3cccnc23)c(=O)c1=O)C(C)(C)C` (stereo not shown) [Example 10, 3-(Quinolin-8-ylamino)-4-(1,2,2-trimethyl-propylamino)-cyclobut-3-ene-1,2-dione], for which the IC50 worked out at 8000 nM.

Take `CC(Nc1c(Nc2cccnc2)c(=O)c1=O)C(C)(C)C` (stereo not shown) [Example 3, 3-(Pyridin-3-ylamino)-4-(1,2,2-trimethyl-propylamino)-cyclobut-3-ene-1,2-dione]: the IC50 came to 1950 nM.

Turning to `O=c1c(Nc2ccncc2)c(N[C@H]2C[C@@H]3CC[C@H]2C3)c1=O` (relative stereo) [Example 2, (Exo)-3-(bicyclo[2.2.1]hept-2-ylamino)-4-(pyridin-4-ylamino)-cyclobut-3,-ene-1,2-dione], the IC50 was found to be 15800 nM.

For the compound `CC(Nc1c(Nc2ccncc2)c(=O)c1=O)C(C)(C)C` (stereo not shown) [Example 1, 3-(Pyridin-4-ylamino)-4-(1,2,2-trimethyl-propylamino)-cyclobut-3-ene-1,2-dione], the IC50 turned out to be 1360 nM.

Still in this test, the particulars now being: 0.5 h, at 30 μM, 15 mM KCl added, 30 minute challenge, read-out: Inhibition of Force (%) at (x) μM.
Regarding `Nc1c(Nc2cccc3cnccc23)c(=O)c1=O` [Example 9, 3-Amino-4-(isoquinolin-5-ylamino)-cyclobut-3-ene-1,2-dione], the inhibition – broadly, the percentage by which the read-out fell short of the control – at 30 µM was found to be 43%.

On to `Nc1c(Nc2cccnc2)c(=O)c1=O` [Example 6], for which the inhibition at 30 µM was 31%.

For the compound `CC(C)(C)Nc1c(Nc2cnc3ccccc3c2)c(=O)c1=O` [Example 14, 3-Tert-butylamino-4-(quinolin-3-ylamino)-cyclobut-3-ene-1,2-dione], the inhibition at 30 µM came to 51%.
